The values that follow come from publication PMC4032265 (PLoS ONE, 2014).

In assay [1] the target is 5HT2B serotonergic receptor (Homo sapiens, UniProt P41595). Briefly: PDSP radioligand binding, 5HT2B. Particulars: full concentration-response curves, n = 3-6 unless noted.
The target in assay [2] is T1, 5HT2C serotonergic receptor (Homo sapiens, UniProt P28335).
T1 sequence (P28335 33-458): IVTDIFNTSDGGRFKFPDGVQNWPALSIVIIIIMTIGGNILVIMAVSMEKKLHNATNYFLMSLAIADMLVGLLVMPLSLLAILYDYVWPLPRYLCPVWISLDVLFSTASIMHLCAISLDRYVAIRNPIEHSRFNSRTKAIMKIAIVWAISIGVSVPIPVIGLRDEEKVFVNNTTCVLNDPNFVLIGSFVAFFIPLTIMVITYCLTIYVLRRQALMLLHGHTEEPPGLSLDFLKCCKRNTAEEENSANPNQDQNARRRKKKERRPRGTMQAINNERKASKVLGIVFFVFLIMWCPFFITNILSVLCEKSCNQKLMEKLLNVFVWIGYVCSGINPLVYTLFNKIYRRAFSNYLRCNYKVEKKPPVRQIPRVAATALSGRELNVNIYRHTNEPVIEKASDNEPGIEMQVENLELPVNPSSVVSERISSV
Briefly: PDSP radioligand binding, 5HT2C. To be noted: full concentration-response curves, n = 3-6 unless noted.

The subject of assay [3] is 41 diverse receptors, channels and a transporter. Briefly: PDSP broad screen: summary of off-target interactions. To be noted: besides 5HT2B and 5HT2C.
Assay [4] concerns sigma (σ) receptors. To be noted: cited from earlier work.
The test system of assay [5] is peripheral cholecystokinin receptors. To be noted: cited from earlier work.

Structures are written as SMILES.

Sequence of 5HT2B serotonergic receptor (P41595 whole entry): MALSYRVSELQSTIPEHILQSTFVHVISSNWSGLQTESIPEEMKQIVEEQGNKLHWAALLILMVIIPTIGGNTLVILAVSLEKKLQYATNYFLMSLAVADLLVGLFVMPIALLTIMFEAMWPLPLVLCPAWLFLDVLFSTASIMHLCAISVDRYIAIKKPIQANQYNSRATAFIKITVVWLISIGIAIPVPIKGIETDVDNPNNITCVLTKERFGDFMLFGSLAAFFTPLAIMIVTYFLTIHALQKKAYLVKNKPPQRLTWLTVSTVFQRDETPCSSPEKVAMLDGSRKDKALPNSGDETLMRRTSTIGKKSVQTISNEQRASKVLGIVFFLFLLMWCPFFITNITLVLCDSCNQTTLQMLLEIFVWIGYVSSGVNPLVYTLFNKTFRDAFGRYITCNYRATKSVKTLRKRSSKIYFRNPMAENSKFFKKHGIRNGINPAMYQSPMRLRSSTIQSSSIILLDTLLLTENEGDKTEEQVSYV

Regarding `CNC(=O)[C@H]1O[C@@H](n2cnc3c(NCc4cccc(I)c4)ncnc32)[C@H](O)[C@@H]1O` [IB-MECA, N ^6-(3-iodobenzyl)-5′-N-methylcarboxamidoadenosine], the inhibition constant (Ki) is 1.08 µM in assay [1] and 5.42 µM in assay [2]. In assay [3], the “other off-target interactions in pharmacological screening” value is recorded as “no other off-target interactions”. In addition, the “binding inhibition at 10 µM” value in assay [4] and in assay [5] was 50–70% each time.

The term Ki denotes the dissociation constant of the complex between target and ligand, obtained from inhibition or displacement. The low end stands for higher affinity, the high end for lower affinity.
